pIC50: −log10 of the molar value.
target: full length MPS1 (Homo sapiens (Human), UniProt P33981); test: Measurement of inhibition of MPS1 kinase (Caliper EZ reader, fluorescent labelled peptide H236); assay type: biochemical; settings: full length MPS1 12.5 nM or 3 nM, peptide H236 5 μM, ATP 10 μM, 60 min at room temperature
Sequence (P33981 whole entry): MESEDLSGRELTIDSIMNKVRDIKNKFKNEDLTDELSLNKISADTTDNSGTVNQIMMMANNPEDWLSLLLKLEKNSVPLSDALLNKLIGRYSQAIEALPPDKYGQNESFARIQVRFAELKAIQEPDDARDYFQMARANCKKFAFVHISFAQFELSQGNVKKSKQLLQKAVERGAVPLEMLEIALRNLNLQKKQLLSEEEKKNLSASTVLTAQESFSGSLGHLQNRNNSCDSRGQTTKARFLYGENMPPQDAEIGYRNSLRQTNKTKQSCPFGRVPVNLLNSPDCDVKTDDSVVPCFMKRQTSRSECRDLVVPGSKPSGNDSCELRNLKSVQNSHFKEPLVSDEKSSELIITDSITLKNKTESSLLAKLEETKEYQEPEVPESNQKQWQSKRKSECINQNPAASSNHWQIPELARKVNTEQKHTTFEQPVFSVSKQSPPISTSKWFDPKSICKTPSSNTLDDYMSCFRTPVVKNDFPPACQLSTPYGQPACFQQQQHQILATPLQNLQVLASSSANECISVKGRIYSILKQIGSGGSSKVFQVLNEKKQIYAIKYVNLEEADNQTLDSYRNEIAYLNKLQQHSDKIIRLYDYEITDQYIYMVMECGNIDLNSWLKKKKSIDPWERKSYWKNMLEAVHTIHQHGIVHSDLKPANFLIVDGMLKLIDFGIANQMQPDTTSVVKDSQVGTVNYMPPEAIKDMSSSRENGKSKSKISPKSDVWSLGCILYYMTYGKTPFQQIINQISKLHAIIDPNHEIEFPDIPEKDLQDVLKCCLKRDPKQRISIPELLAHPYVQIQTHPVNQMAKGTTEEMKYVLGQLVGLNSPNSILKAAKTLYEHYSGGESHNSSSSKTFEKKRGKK

Compound | pIC50
CCOc1cc(C(=O)N2CC(OC)C2)ccc1Nc1cc2cc(-c3cnn(CC(C)(C)O)c3)ccc2cn1 [Example 92, (3-Ethoxy-4-(6-(1-(2-hydroxy-2-methylpropyl)-1H-pyrazol-4-yl)isoquinolin-3-ylamino)phenyl)(3-methoxyazetidin-1-yl)methanone] | 8.70
COc1cc(C(=O)N2CC(F)(F)C2)ccc1Nc1cc2cc(-c3cnn(CC(C)(C)O)c3)ccc2cn1 [Example 93, (3,3-Difluoroazetidin-1-yl)(4-(6-(1-(2-hydroxy-2-methylpropyl)-1H-pyrazol-4-yl)isoquinolin-3-ylamino)-3-methoxyphenyl)methanone] | 8.30
COc1cc(C(=O)N2CCC(C#N)CC2)ccc1Nc1cc2cc(-c3cnn(CC(C)(C)O)c3)ccc2cn1 [Example 94, 1-(4-(6-(1-(2-Hydroxy-2-methylpropyl)-1H-pyrazol-4-yl)isoquinolin-3-ylamino)-3-methoxybenzoyl)piperidine-4-carbonitrile] | 8.70
COc1cc(C(=O)N2CC3(CCOC3)C2)ccc1Nc1cc2cc(-c3cnn(CC(C)(C)O)c3)ccc2cn1 [Example 95, (4-(6-(1-(2-Hydroxy-2-methylpropyl)-1H-pyrazol-4-yl)isoquinolin-3-ylamino)-3-methoxyphenyl)(6-oxa-2-azaspiro[3,4]octan-2-yl)methanone] | 9.00
COc1cc(C(=O)N2CC(OC)C2)ccc1Nc1cc2cc(-c3cn(CC(C)(C)O)nn3)ccc2cn1 [Example 96, (4-(6-(1-(2-Hydroxy-2-methylpropyl)-1H-1,2,3-triazol-4-yl)isoquinolin-3-ylamino)-3-methoxyphenyl)(3-methoxyazetidin-1-yl)methanone] | 8.70
COc1cc(C(=O)N2CC(OC)C2)ccc1Nc1cc2cc(-c3cnn(CC(C)(C)O)n3)ccc2cn1 [Example 97, (4-(6-(2-(2-Hydroxy-2-methylpropyl)-2H-1,2,3-triazol-4-yl)isoquinolin-3-ylamino)-3-methoxyphenyl)(3-methoxyazetidin-1-yl)methanone] | 8.05
COc1cc(-c2cnn(C)c2)ccc1Nc1cc2nc(-c3cnn(C)c3)ccc2cn1 [Example 100, N-(2-Methoxy-4-(1-methyl-1H-pyrazol-4-yl)phenyl)-2-(1-methyl-1H-pyrazol-4-yl)-1,6-naphthyridin-7-amine] | 8.22
COc1cc(-c2cnn(C)c2)ccc1Nc1cc2nc(-c3cnn(CC(C)(C)O)c3)ccc2cn1 [Example 101, 1-(4-(7-(2-Methoxy-4-(1-methyl-1H-pyrazol-4-yl)phenylamino)-1,6-naphthyridin-2-yl)-1H-pyrazol-1-yl)-2-methylpropan-2-ol] | 8.52
COc1cc(-c2cnc(C)n2C)ccc1Nc1cc2nc(-c3cnn(CC(C)(C)O)c3)ccc2cn1 [Example 102, 1-(4-(7-(4-(1,2-Dimethyl-1H-imidazol-5-yl)-2-methoxyphenylamino)-1,6-naphthyridin-2-yl)-1H-pyrazol-1-yl)-2-methylpropan-2-ol] | 8.70
CCOc1cc(-c2nncn2C)ccc1Nc1cc2nc(-c3cnn(CC(C)(C)O)c3)ccc2cn1 [Example 103, 1-(4-(7-(2-Ethoxy-4-(4-methyl-4H-1,2,4-triazol-3-yl)phenylamino)-1,6-naphthyridin-2-yl)-1H-pyrazol-1-yl)-2-methylpropan-2-ol] | 9.00
COc1cc(C(=O)N2CC(OC)C2)ccc1Nc1cc2nc(-c3cnn(CC(C)(C)O)c3)ccc2cn1 [Example 104, (4-(2-(1-(2-Hydroxy-2-methylpropyl)-1H-pyrazol-4-yl)-1,6-naphthyridin-7-ylamino)-3-methoxyphenyl)(3-methoxyazetidin-1-yl)methanone] | 8.70
COc1cc(-c2nncn2C)ccc1Nc1cc2nc(-c3cnn(CC(C)(C)O)c3)ccc2cn1 [Example 105, 1-(4-(7-(2-Methoxy-4-(4-methyl-4H-1,2,4-triazol-3-yl)phenylamino)-1,6-naphthyridin-2-yl)-1H-pyrazol-1-yl)-2-methylpropan-2-ol] | 9.00
COc1cc(-c2cnc(C)n2C)ccc1Nc1cc2nc(-c3cnn(CC4(O)CCC4)c3)ccc2cn1 [Example 106, 1-((4-(7-(4-(1,2-Dimethyl-1H-imidazol-5-yl)-2-methoxyphenylamino)-1,6-naphthyridin-2-yl)-1H-pyrazol-1-yl)methyl)cyclobutanol] | 9.00
COc1cc(-c2cnn(C)c2)ccc1Nc1cc2nc(C(=O)N(C)C)ccc2cn1 [Example 107, 7-(2-Methoxy-4-(1-methyl-1H-pyrazol-4-yl)phenylamino)-N,N-dimethyl-1,6-naphthyridine-2-carboxamide] | 6.39
COc1cc(-c2cnc3n2CCNC3)ccc1Nc1cc2cc(-c3cnn(CC(C)(C)O)c3)ccc2cn1 [Example 111, 1-(4-(3-((2-Methoxy-4-(5,6,7,8-tetrahydroimidazo[1,2-a]pyrazin-3-yl)phenyl)amino)-isoquinolin-6-yl)-1H-pyrazol-1-yl)-2-methylpropan-2-ol] | 8.52
COc1cc(-c2nnc3n2CCNC3)ccc1Nc1cc2cc(-c3cnn(CC(C)(C)O)c3)ccc2cn1 [Example 112, 1-(4-(3-(2-Methoxy-4-(5,6,7,8-tetrahydro-[1,2,4]triazolo[4,3-a]pyrazin-3-yl)phenylamino)-isoquinolin-6-yl)-1H-pyrazol-1-yl)-2-methylpropan-2-ol] | 8.70
COc1cc(-c2cnc(C)n2C)ccc1Nc1cc2cc(-c3cnn(C4CCNCC4)c3)ccc2cn1 [Example 113, N-(4-(1,2-dimethyl-1H-imidazol-5-yl)-2-methoxyphenyl)-6-(1-(piperidin-4-yl)-1H-pyrazol-4-yl)isoquinolin-3-amine] | 8.40

same assay, conditions: unit printed as (M); full length MPS1 12.5 nM or 3 nM, peptide H236 5 μM, ATP 10 μM, 60 min at room temperature

Compound | IC50 [M]
COc1cc(-c2cnc(C)n2C)ccc1Nc1ncc2ccc(-c3cnn(C)c3)nc2n1 [Example 115, N-(4-(1,2-dimethyl-1H-imidazol-5-yl)-2-methoxyphenyl)-7-(1-methyl-1H-pyrazol-4-yl)pyrido[2,3-d]pyrimidin-2-amine] | 1.6e-08

— patent US9334286B2, “Pharmacologically active compounds” (Cancer Research Technology Limited, priority 2012, dated 2016)
